Some test systems named below: HCT-15 colon; KM12 colon; SF-295 CNS; TK-10 renal; OVCAR-8 ovarian; RPMI-8226 leukemia; NCI-H522 lung; MCF7 breast; NCI-H460 lung; HOP-62 NSCLC.
Test in all cases: NCI anticancer screen, dose series, 48 h

Values joined by “and” are separate entries in the source; they are usually repeats but may differ in a detail not shown here. Equal values may be shown once.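 These data come from cells grown in 96-well plates and exposed to compound for 48 hours at five concentrations. At the GI50, growth is halved. TGI marks complete inhibition of growth.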

For the compound `Cc1ccc2cnc(N)c(C#Cc3cc(C(=O)Nc4ccc(CN5CCN(C)CC5)c(C(F)(F)F)c4)cnc3C)c2c1`, the GI50 in the assay with HCT-15 colon was 0.385 µM; with KM12 colon, 0.005 µM; in the assay on SF-295 CNS, 0.771 µM; in the assay with TK-10 renal, 0.731 µM; in the assay on OVCAR-8 ovarian, 1.11 µM; with RPMI-8226 leukemia, 1.01 µM. The GI50 in the assay with NCI-H522 lung is 0.588 µM; with MCF7 breast it was 0.498 µM; in the assay on NCI-H460 lung it was 0.604 µM; in the assay with HOP-62 NSCLC it was 0.887 µM. The TGI with HCT-15 colon is 1.17 µM; with KM12 colon, 1.02 µM; in the assay on SF-295 CNS it was 1.75 µM; in the assay with TK-10 renal it was 1.48 µM; with OVCAR-8 ovarian it was 3.85 µM; in the assay with RPMI-8226 leukemia it was 2.86 µM. Also, the TGI stood at 1.36 µM in the assay with NCI-H522 lung, 1.49 µM in the assay on MCF7 breast, 1.34 µM in the assay on NCI-H460 lung and 2.76 µM with HOP-62 NSCLC.
Regarding `COc1ccc2c(c1)C(=O)/C(=C/c1cccc(OCC(=O)c3ccccc3)c1)CC2`, the GI50 with HCT-15 colon was 7.11 µM; with KM12 colon, 6.92 µM; in the assay with SF-295 CNS, 10.3 µM; in the assay with TK-10 renal, greater than 100 µM; in the assay on OVCAR-8 ovarian it was 44.1 µM; with RPMI-8226 leukemia it was 2.31 µM. The GI50 in the assay with NCI-H522 lung was 8.84 µM; in the assay on MCF7 breast, 4.53 µM; in the assay with NCI-H460 lung, 28.1 µM; with HOP-62 NSCLC, 42.5 µM. Besides, the TGI in the assay with HCT-15 colon was greater than 100 µM; with KM12 colon, greater than 100 µM; with SF-295 CNS it was greater than 100 µM; in the assay with TK-10 renal, greater than 100 µM; with OVCAR-8 ovarian, greater than 100 µM; in the assay with RPMI-8226 leukemia, 5.91 µM. Besides, the TGI with NCI-H522 lung, in the assay on MCF7 breast, in the assay with NCI-H460 lung and with HOP-62 NSCLC was greater than 100 µM in each case.
Take `N=C1C(O)C2(I)c3ccccc3N3C(=N)C(O)C4c5ccccc5N1C4C32` (stereo unspecified): the TGI in the assay with HCT-15 colon was greater than 100 µM; with KM12 colon, 34.8 µM; in the assay with SF-295 CNS it was greater than 100 µM; in the assay with TK-10 renal, greater than 100 µM; in the assay on OVCAR-8 ovarian, greater than 100 µM; in the assay on RPMI-8226 leukemia it was greater than 100 µM. Also, the TGI in the assay with NCI-H522 lung, in the assay on MCF7 breast, with NCI-H460 lung and in the assay on HOP-62 NSCLC was greater than 100 µM throughout.
With `CCOc1ccccc1CCN=C1NC(=O)/C(=C/c2ccc3ncccc3c2)S1`, the GI50 in the assay with HCT-15 colon was 0.777 µM; with KM12 colon, 0.725 µM; in the assay with SF-295 CNS it was 0.672 µM; in the assay on TK-10 renal it was 1.35 µM; with OVCAR-8 ovarian, 3.08 µM; in the assay on RPMI-8226 leukemia, 1.02 µM. Besides, the GI50 was 0.676 µM in the assay on NCI-H522 lung, 0.792 µM in the assay on MCF7 breast, 0.879 µM in the assay with NCI-H460 lung and 1.44 µM with HOP-62 NSCLC. The TGI was greater than 25 µM in the assay on HCT-15 colon; 10.1 µM in the assay with KM12 colon; greater than 6 µM in the assay on SF-295 CNS; greater than 23.3 µM in the assay with TK-10 renal; greater than 25 µM in the assay on OVCAR-8 ovarian; 8.38 µM in the assay on RPMI-8226 leukemia. For the same compound, the TGI in the assay with NCI-H522 lung was 3.49 µM; in the assay on MCF7 breast, greater than 25 µM; in the assay on NCI-H460 lung it was greater than 25 µM; in the assay with HOP-62 NSCLC it was greater than 17.6 µM.
As for `Cn1ncc(-c2ccc3c(=O)[nH]nc(CN)c3c2)c1-c1c(F)c(Cl)cc(OC2CC2)c1C#N`, the GI50 is 14.7 µM and 14.3 µM in the assay with HCT-15 colon; 13.9 µM and 12.4 µM in the assay on KM12 colon; 14.3 µM and 13.3 µM in the assay with SF-295 CNS; 16.2 µM and 13.7 µM in the assay with TK-10 renal; 13.9 µM and 13.7 µM in the assay on OVCAR-8 ovarian; 14.9 µM and 16 µM with RPMI-8226 leukemia. Also, the GI50 with NCI-H522 lung is 12.7 µM and 9.22 µM; in the assay on MCF7 breast, 10.8 µM and 10.2 µM; in the assay on NCI-H460 lung it was 13.6 µM and 12.4 µM; in the assay with HOP-62 NSCLC, 16.1 µM and 13.4 µM. The TGI in the assay on HCT-15 colon was 30 µM and 28.9 µM; with KM12 colon, 28.3 µM and 25.6 µM; in the assay on SF-295 CNS, 28.4 µM and 27.2 µM; with TK-10 renal, 31.8 µM and 27.2 µM; with OVCAR-8 ovarian it was 27.4 µM and 27.1 µM; in the assay with RPMI-8226 leukemia, 47.5 µM and 47.8 µM. Further, the TGI with NCI-H522 lung was 27.4 µM and 23.1 µM; with MCF7 breast, 23.6 µM and 23.3 µM; in the assay on NCI-H460 lung it was 28.8 µM and 26.7 µM; in the assay with HOP-62 NSCLC, 33.7 µM and 27.8 µM.
Regarding `O=S(=O)(Nc1ccc(Br)cc1)c1ccc(-c2cnc(C3CC3)o2)cc1`, the GI50 was 0.644 µM in the assay on HCT-15 colon; 1.13 µM with KM12 colon; 1.13 µM with SF-295 CNS; 5.36 µM in the assay on TK-10 renal; 4.16 µM with OVCAR-8 ovarian; 2.62 µM in the assay on RPMI-8226 leukemia. Besides, the GI50 in the assay with NCI-H522 lung was 0.855 µM; in the assay with MCF7 breast it was 0.651 µM; with NCI-H460 lung, 2.2 µM; with HOP-62 NSCLC it was 2.37 µM. Further, the TGI came to 14.2 µM in the assay with HCT-15 colon; 17.5 µM in the assay on KM12 colon; 11.8 µM with SF-295 CNS; 21.5 µM in the assay on TK-10 renal; 20.4 µM with OVCAR-8 ovarian; 14.5 µM in the assay on RPMI-8226 leukemia. Besides, the TGI in the assay on NCI-H522 lung was found to be 12.9 µM; in the assay on MCF7 breast it was 13.9 µM; in the assay on NCI-H460 lung it was 10.2 µM; in the assay on HOP-62 NSCLC, 16.6 µM.
On to `CC(=O)Nc1ccc(-c2cc(C(=O)O)c3cc4ccccc4cc3n2)cc1`, for which the TGI in the assay on HCT-15 colon, with KM12 colon, in the assay with SF-295 CNS, in the assay on TK-10 renal, with OVCAR-8 ovarian and with RPMI-8226 leukemia was greater than 100 µM each time. Moreover, the TGI with NCI-H522 lung, with MCF7 breast, in the assay on NCI-H460 lung and in the assay on HOP-62 NSCLC was greater than 100 µM in each case.
On to `CCc1c2c(nc3ccc(OCc4ccc(B(O)O)cc4)cc13)-c1cc3c(c(=O)n1C2)COC(=O)[C@]3(O)CC`, for which the GI50 with HCT-15 colon was 0.353 µM; in the assay on KM12 colon, 0.15 µM; with SF-295 CNS, less than 0.01 µM; in the assay on TK-10 renal it was 0.226 µM; with OVCAR-8 ovarian, 0.0195 µM; with RPMI-8226 leukemia it was 0.184 µM. Besides, the GI50 in the assay with NCI-H522 lung is less than 0.0183 µM; in the assay with MCF7 breast it was less than 0.01 µM; with NCI-H460 lung it was less than 0.0134 µM; with HOP-62 NSCLC, less than 0.01 µM. Further, the TGI is greater than 43 µM in the assay on HCT-15 colon; greater than 51.9 µM in the assay on KM12 colon; 7.53 µM with SF-295 CNS; greater than 32.1 µM in the assay on OVCAR-8 ovarian; greater than 100 µM with RPMI-8226 leukemia; 1.39 µM in the assay on NCI-H460 lung.
